Measurements taken from patent US20170226541A1, “METHOD OF IMPROVING SOLVENT TOLERANCE IN MICROBES” (Nanyang Technological University, priority 2014, published 2017).
“Also recorded” adds a separate entry of the source.

Legend:
[1] = Single molecule tracking of DHPE-Atto647N in supported lipid bilayer; design: species or system E. coli; settings: for effect on MSD / bilayer stiffness (comparison of OPV COEs): no butanol, OPV COE final concentration 1 μM (FIG. 4)
Experimental: SLB formation, MIM treatment: A 3 mg/ml chloroform solution of total E. coli lipid extract (Avanti Polar Lipids, Alabaster, Ala.) was mixed with DHPE-Atto647N (Atto-Tec, Slegen, Germany) to 0.001% mol in a round bottom flask produce large unilamellar vesicles (LUVs). Chloroform was evaporated using a rotary evaporator for 2 hours at 65° C. The lipid film was resuspended in 10 mM HEPES and 150 mM NaCl, pH 7.4, vortexed for 10 min and sonicated in a bath sonicator until a clear solution was obtained. One hundred μl of such a prepared LUVs solution were deposited in a custom made plastic holder, glued to a coverslip, and incubated for 60 min at 65° C. Prior to use, coverslips were cleaned by 30 min sonication in 2% Hellmanex (Hellma Analytics, Millheim, Germany), followed by thorough rinsing with deionized (DI) water. Un-fused vesicles were removed by 10× washing with 400 μl of 10 mM Hepes, 150 mM NaCl, 3 mM EDTA, pH 7.4 buffer. Calculated volumes of COE1-5C, DSSN+, DSBN+ and 4F-DSBN+ (0.1 mM) were added directly to the chamber to final concentrations of 1 μM, mixed and allowed to equilibrate for 5 min prior to measurement.
Data acquisition: For total internal reflection microscopy (TIRF) imaging, a modified Nikon Eclipse TE2000U TIRF setup was used, equipped with a 100× 1.49NA objective (Nikon, Japan). Laser light from a 638 nm LED laser was passed through a 660LP dichromic mirror (Chroma Technology Corp, Bellows Falls, Vt.) and used for sample illumination under the TIR angle. Emitted light was filtered using a 738/75 […] and collected on a back-illuminated EMCCD camera chip (Andor iXON897, 512x512px, Andor Technology, USA). For each condition, 4 to 6 datasets of 4000 frames at 97 fps were collected from different regions of the membrane. Immobile particles and contaminants were bleached prior to measurement.
Data analysis: A Mosaic Particle Tracker ImageJ plugin was used to localize the centroid of single molecule signals and link them to trajectories. TrackArt software was used to filter spurious trajectories and extract mean square displacements and diffusion coefficients. […] The slowly-diffusing population occurs most likely due to marker interaction with the surface.

E. coli K12 [2] = experiment: Butanol challenge, microdilution growth test; format: cell-based, Escherichia coli K12 (ATTC 10798); settings: for protective effect on growth under butanol challenge: 0 to 3.5% (v/v) butanol, DSSN+ 5 μM
Experimental: Butanol challenge was assessed by using a microdilution format modified standard toxicity test based on the method described by Wiegand et al (I. Wiegand, K. Hilpert, R. E. W. Hancock, Nat. Protocols 2008, 3, 163-175). Cultures of E. coli K12 (ATTC 10798) grown in LB broth were harvested at late log phase and diluted to 1×10^6 cfu ml. One hundred μl of the suspension were inoculated into 96 well plates with each well containing an equal volume of LB broth and spiked with the following concentrations of 1-butanol: […] in a 96 well plate achieving a final inoculum density of 5×10^5 and a final butanol concentration of 0, 0.85, 1.75, and 3.5% (v/v). Tests were run in triplicate with and without COE1-5C (10 μM) and DSSN+ (5 μM) using the appropriate sterility and growth controls. Specific growth rates were expressed as an average of all replicates.

E. coli K12 cells = experiment: Modified microbial adhesion to hydrocarbon (MATH) test; format: cell-based, Escherichia coli K12
Experimental: To test for cell surface modifications brought about by COE1-5C that might affect hydrophobicity, E. coli K12 cells treated with COE1-5C (10 μM) were tested for their affinity for either the butanol or aqueous phase against an untreated control. The tendency of E. coli to partition into the butanol phase or remain in the aqueous phase was assessed optically by measuring the reduction in turbidity (OD600) of tubes containing a saturated mixture of butanol (1.5 ml) and buffer (18.5 ml). The tests were carried out with appropriate blanks and both positive and negative controls. MATH tests were carried out in triplicate and expressed as the quotient of the difference between the OD600 at the start and […] and the OD600 at the […].

E. coli K12 [3] = experiment: Membrane polarisation (DiSC3 fluorescence); format: cell-based, Escherichia coli K12; settings: 10 μM COE1-5C; 0, 1.75 or 3.5% (v/v) 1-butanol
Experimental: Cultures of E. coli K12 grown in LB broth were harvested at late log phase and diluted to 5×10^5 cfu ml. Cells were centrifuged at 5000×g for 5 min and washed in phosphate buffered saline (PBS). The process was repeated three times and the pellet finally resuspended in PBS. Two-hundred μl of the cell suspension were inoculated into 96 well plates, 2 μL of the depolarization detecting probe 3,3-diethylthiodicarbocyanine (DiSC3) iodide was added to the treatment wells and to half of these, 10 μM COE1-5C. The cells were allowed to incubate for around 30 min and the fluorescence intensity at 670 nm was measured after excitation at 620 nm until a stable base line was reached. Zero, 1.75, or 3.5% (v/v) 1-butanol was added to the test well and the increase in fluorescence intensity was taken at 1 min intervals (Ex=λ620, Em=Δ670) as a bottom reading with optimal gain to determine the degree of membrane polarization. Buffer, dye, and COE1-5C blanks were monitored and the data corrected accordingly.

E. coli K12 [4] = experiment: Toxicity tests (minimum inhibitory concentration); format: cell-based, Escherichia coli K12
Text: Relative toxicities of DSSN+ and DSBN+ are positively correlated with the extent of mismatch between the length of the hydrophobic molecular backbone and bilayer thickness. Membrane insertion of the shorter, 3-ringed DSBN+ thinned the membrane more than the 4-ringed DSSN+, perturbing it to a greater extent, and was correspondingly more toxic. In this example, the objective is to mitigate the toxic effect of organic solvents on biological membranes. To avoid synergistic membrane disruption in systems containing both MIMs and solvents, MIMs that were the least likely to perturb membranes, that is, DSSN+×(which was previously shown to maintain the natural thickness of membranes) and COE1-5C, were selected. The insertion of COE1-5C, whose molecular length (≈5 nm) is greater than the thickness of the bilayer (≈4 nm), would be expected to initiate membrane perturbation because of hydrophobic mismatch. However, positive hydrophobic mismatch perturbs lipid bilayers less than instances of negative mismatch—where the length of the insertion molecules is shorter than the thickness of the bilayer. The experimental concentration of COE1-5C used in this study (10 μM) is much lower than its minimum inhibitory concentration (MIC). […] This is considerably greater than for DSSN+, DSBN+ and 4F-DSBN+, further supporting the hypothesis that membrane thinning is a potent toxicity determinant. […]

Compound: C[N+](C)(C)CCCCCCN(CCCCCC[N+](C)(C)C)c1ccc(/C=C/c2ccc(/C=C/c3ccc(/C=C/c4ccc(N(CCCCCC[N+](C)(C)C)CCCCCC[N+](C)(C)C)cc4)cc3)cc2)cc1.[I-].[I-].[I-].[I-] [DSSN+, reference compound]
- effect on MSD / bilayer stiffness (comparison of OPV COEs) [1]: to a lesser degree than the five-ringed structure
- protective effect on growth under butanol challenge (E. coli K12 [2]; COE1-5C 10 μM): no protective effect; also recorded: no growth of E. coli K12 was observed
- protective effect on growth under butanol challenge (E. coli K12 [2]; COE1-5C 10 μM, listed as DSSN^+): do not

Compound: C[N+](C)(C)CCCCCCN(CCCCCC[N+](C)(C)C)c1ccc(/C=C/c2ccc(/C=C/c3ccc(N(CCCCCC[N+](C)(C)C)CCCCCC[N+](C)(C)C)cc3)cc2)cc1.[I-].[I-].[I-].[I-] [DSBN+, reference compound]
- effect on MSD / bilayer stiffness (comparison of OPV COEs) [1]: to a lesser degree than the five-ringed structure

Compound: C[N+](C)(C)CCCCCCN(CCCCCC[N+](C)(C)C)c1ccc(C=Cc2ccc(C=Cc3ccc(C=Cc4ccc(C=Cc5ccc(N(CCCCCC[N+](C)(C)C)CCCCCC[N+](C)(C)C)cc5)cc4)cc3)cc2)cc1.[I-].[I-].[I-].[I-] [COE1-5C]
- tendency of treated cells to partition into the butanol phase relative to untreated cells (E. coli K12 cells; 10 μM COE1-5C): less than half that of untreated cells
- MATH value (E. coli K12 cells; E. coli K12 treated with 10 μM COE1-5C, butanol/buffer partitioning, OD600): 0.17 (±0.027)
- membrane depolarization by butanol (E. coli K12 [3]): mitigated the depolarization efficiency of butanol
- minimum inhibitory concentration (MIC) (E. coli K12 [4]): 128 µM
- reduction in MSD of membrane marker ([1]; 0% (v/v) butanol): 62%
- diffusion coefficients in model membranes versus control ([1]; 10 μM COE1-5C, 0.85, 1.75, 3.50% v/v butanol (FIG. 2)): much lower than in control systems
- reduction in MSD of membrane marker ([1]; 0.85% (v/v) butanol): 38%
- reduction in MSD of membrane marker ([1]; 1.75% (v/v) butanol): 22%
- reduction in MSD of membrane marker ([1]; 3.5% v/v butanol): 15%
- effect on MSD / bilayer stiffness (comparison of OPV COEs) [1]: increased bilayer stiffness to the greatest degree
- protective effect on growth under butanol challenge (E. coli K12 [2]; COE1-5C 10 μM): increased the growth rate of E. coli K12 in all instances of butanol challenge; also recorded: mitigates the toxic effect of butanol
- growth rate of treated cells relative to untreated cells (fold) (E. coli K12 [2]; 3.5% v/v butanol): threefold increase
- growth rate relative to a control (E. coli K12 [2]; 3.5% v/v butanol): about 13%
- specific growth rate (E. coli K12 [2]; 3.5% v/v butanol, COE1-5C 10 μM, listed as conjugated oligo-electrolyte): 0.095 h⁻¹
- growth rate of treated cells relative to untreated cells (fold) (E. coli K12 [2]; 3.5% v/v butanol, listed as OPV COE): three times
- growth rate of treated cells relative to untreated cells (fold) (E. coli K12 [2]; 3.5% v/v butanol, listed as conjugated oligo-electrolyte): 3

Compound: C[N+](C)(C)CCCCCCN(CCCCCC[N+](C)(C)C)c1ccc(/C=C/c2c(F)c(F)c(/C=C/c3ccc(N(CCCCCC[N+](C)(C)C)CCCCCC[N+](C)(C)C)cc3)c(F)c2F)cc1.[I-].[I-].[I-].[I-] [4F-DSBN+, reference compound]
- effect on MSD / bilayer stiffness (comparison of OPV COEs) [1]: stiffened the least amount
